Read-outs that look alike come from different tables or passages of the source.
Key:
[1] = Bioanalysis of brain and plasma samples (exposure, UPLC-MS/MS); format: in vivo, rat; details: male, Sprague Dawley, po, 3 hours post dose; for Kp at 3 h: brain and plasma, Rat, read-out: Brain/Plasma ratio; for concentration at 3 h: read-out: Exp
Protocol: Young adult Male Sprague Dawley rats of approximately 250 g weight were purchased from Charles River and received 0-30 mg/kg of vehicle (10% HP betaCD+1M MeSO4, pH 2.5) or test compounds (dissolved in vehicle) only by oral gavage (p.o). The compounds are dosed at a volume of 5 ml/kg. Cohorts of 5-10 animals were established for each treatment condition.
At T=180 minutes after initial dosing the animals were stunned and decapitated with a guillotine. Trunk-blood was sampled in EDTA coated tubes after decapitation of the animal. The blood was centrifuged at 2200G at 4° C. for 15 minutes and the plasma was collected and frozen at −80° C. The blood was aliquoted for Aβ ELISA and DMPK analysis. Immediately following sacrifice, the brain was extracted and split into 2 halves. The right hemibrains were snap frozen on dry ice and stored at −80° C. The left half was dissected; with the front forebrain taken for Aβ ELISA and the remainder used for DMPK analysis. These samples were also snap frozen on dry ice and stored at −80° C. until use for analysis. […]
TC was determined in plasma and brain homogenate using UltraPerformance LC® (UPLC®) chromatography followed by tandem-MS (MS/MS) detection.
Brain homogenate was prepared by homogenizing the brain 1:4 (v/v) with water:2-propanol:DMSO (50:30:20 v/v/v) followed by centrifugation and collection of the supernatant. Calibration standards and QC samples were prepared using a Hamilton robot. 150 μL of ISTD in acetonitrile (1 ng/mL ISTD) was added to 25 μL of calibration standards, QC samples and test samples (plasma and brain homogenate) using a Biomek robot. After centrifugation (6200 g, 4° C., 20 min) 100 μL supernatant from each sample was transferred to a new plate and mixed with 100 μL water with 0.1% formic acid using a Biomek robot (method file InVivo transfer). After a quick centrifugation (6200 g, 4° C., 5 min) the samples were placed in the auto-sampler.
MS/MS detection was done with an Applied Biosystems Sciex API 4000 instrument in positive-ion electrospray ionisation mode. TC and ISTD were detected at a parent>daughter mass to charge ratio (m/z). Nitrogen was used for the nebulizer and collision gases. The peak area correlated linearly with the plasma and brain concentration of the analytes in the range of 1.00-1000 ng/mL plasma and 5.00-5000 ng/g brain (corrected for dilution). If the plasma/brain sample drug concentration was above 1000 ng/mL or 5000 ng/g, the sample was diluted appropriately in blank plasma/blank brain homogenate before analysis.

P-gp (MDR1) = assay: MDCK-MDR1 assay (permeability, efflux ratio); format: in vitro ADME; details: dog, Papp BA/Papp AB, 60-minute incubation, Pgp substrate when ≥2
Protocol: The permeability of the test compounds was assessed in MDCK-MDR1 cells that were cultured to confluency (4-6 days) in a 96 transwell plate. Test compounds were diluted with the transport buffer (HBSS+1% BSA) to a concentration of 0.5 μM and applied to the apical or basolateral side of the cell monolayer. Permeation of the test compounds from A to B direction or B to A direction was determined in triplicate over a 60-minute incubation time at 37° C. and 5% CO2 with a relative humidity of 95%. Test compounds were quantified by LC-MS/MS analysis based on the peaks area ratios of analyte/IS in both the receiver and donor wells of the transwell plate.
The apparent permeability coefficient Papp (cm/s) was calculated using the equation: Papp=(dCr/dt)×Vr/(A×C0)
Where dCr/dt is the cumulative concentration of compound in the receiver chamber as a function of time (M/s); Vr is the solution volume in the receiver chamber (0.05 mL on the apical side; 0.25 mL on the basolateral side); A is the surface area for the transport, i.e. 0.0804 cm^2 for the area of the monolayer; C0 is the initial concentration in the donor chamber (VIM).
Compounds are classified Pgp substrates when efflux ratio (Papp BA/Papp AB) is ≥2.

Row | Kp at 3 h ([1]; 10 mg/kg p.o.) | Kp at 3 h ([1]; 30 mg/kg p.o.) | concentration at 3 h ([1]; Brain Rat, 10 mg/kg p.o.) [ng/g] | concentration at 3 h ([1]; Brain Rat, 30 mg/kg p.o.) [ng/g] | concentration at 3 h ([1]; Plasma Rat, 10 mg/kg p.o.) [ng/g] | concentration at 3 h ([1]; Plasma Rat, 30 mg/kg p.o.) [ng/g] | efflux ratio at 60 min, 0.5 μM (P-gp (MDR1)) | Kp at 3 h ([1]; 3 mg/kg p.o.) | concentration at 3 h ([1]; Brain Rat, 3 mg/kg p.o.) [ng/g] | concentration at 3 h ([1]; Plasma Rat, 3 mg/kg p.o.) [ng/g] | SMILES
1 | 2.2 | 2.3 | 1020 | 2770 | 473 | 1200 | 0.79 |  |  |  | [2H]C([2H])([2H])Oc1ccc(C(=O)Nc2ccc(F)c([C@@]3(C)N=C(N)[C@@](C)(F)C[C@@H]3F)c2)nc1 [Compound 19, N-(3-((2R,3S,5S)-6-amino-3,5-difluoro-2,5-dimethyl-2,3,4,5-tetrahydropyridin-2-yl)-4-fluorophenyl)-5-(methoxy-d3)picolinamide]
2 | 1.4 | 0.83 | 671 | 1510 | 489 | 1830 | 0.96 |  |  |  | COc1ccc(C(=O)Nc2ccc(F)c([C@@]3(C)N=C(N)[C@@](C)(F)C[C@@H]3F)c2)nc1 [Compound 3, N-(3-((2R,3S,5S)-6-amino-3,5-difluoro-2,5-dimethyl-2,3,4,5-tetrahydropyridin-2-yl)-4-fluorophenyl)-5-methoxypicolinamide]
3 |  |  |  |  |  |  | 0.85 | 2.2 | 610 | 272 | [2H]C([2H])([2H])Oc1cnc(C(=O)Nc2ccc(F)c([C@@]3(C)N=C(N)[C@@](C)(F)C[C@@H]3F)c2)cn1 [Compound 20, N-(3-((2R,3S,5S)-6-amino-3,5-difluoro-2,5-dimethyl-2,3,4,5-tetrahydropyridin-2-yl)-4-fluorophenyl)-5-(methoxy-d3)pyrazine-2-carboxamide]

— patent US10059669B2, “2-amino-3,5-difluoro-3,6-dimethyl-6-phenyl-3,4,5,6-tetrahydropyridines as BACE1 inhibitors for treating alzheimer's disease” (H. Lundbeck A/S, priority 2014, dated 2018)
